Laboratory results taken from US10487045B2, “Adamantane derivative and use thereof” (TOHOKU UNIVERSITY, priority 2016, dated 2019).

Columns and labels:
APP23 mice = experiment: Fear conditioning test in Alzheimer's disease model mice; format: in vivo; settings: APP23 mice treated for two months
Source text: The fear conditioning test method is an analysis taking an advantage of mouse's preposition in favor of a dark place rather than a bright place. Day 1, a mouse is placed in a bright place. Since a mouse is fond of a dark place, the mouse enters a dark place (dark box). When an electrical stimulation is given to the mouse at this time, the mouse is surprised and returns to the bright place and never enters the dark place. Day 2, the mouse is placed in the bright place (the same place as on Day 1), and then, whether the mouse enters a dark place or not is observed for 5 minutes. If the mouse enters the dark place right away, it is determined that fear memory of the mouse declined. “Latency” is a time period (seconds) until the mouse placed in a bright place enters the dark plate (darkroom) on Day 2.

OBX mice = experiment: Depression-like symptom: tail-suspension method and forced swim method in OBX mice; format: in vivo; settings: chronic administration 2 weeks
Description: OBX mice were originally established as depression model mice although a deterioration of cognitive function was observed. Depression was analyzed by a tail-suspension method (a) and a forced swim method (b). The tail-suspension method is a method of pinching the tail of a mouse and hanging the mouse upside down. If the mouse hung has depression, immobility time is long. Since a normal mouse moves even if it is hung, the immobility time is short. In the forced swim method, a mouse is forced to swim in water in a beaker. A mouse having depression neither swims nor moves (just floating). Thus the immobility time is measured. Immobility time was long in OBX mice both in the tail-suspension method (a) and the forced swim method (b). The immobility time of a TP-014 chronic administration group (2 weeks, in the same administration method as that previously mentioned) was improved.

Kir6.2 channel = target: T1, Kir6.2 channel (Mus musculus, UniProt Q61743); experiment: CaMKII activation in N2A cells overexpressing Kir6.2 channel (immunoblotting, anti-phosphorylated CaMKII antibody); format: cell-based; settings: 10 nM, one hour, Kir6.2 channel overexpressing N2A cells; control without compound = 100%
T1 construct: expressed in transfected cells; host or cells: Neuro2A (N2A) cells, transient transfection with pcDNA3.1-Kir6.2 (gift of Dr. Toru Ishizuka, Tohoku University)
T1 sequence (Q61743 1-390): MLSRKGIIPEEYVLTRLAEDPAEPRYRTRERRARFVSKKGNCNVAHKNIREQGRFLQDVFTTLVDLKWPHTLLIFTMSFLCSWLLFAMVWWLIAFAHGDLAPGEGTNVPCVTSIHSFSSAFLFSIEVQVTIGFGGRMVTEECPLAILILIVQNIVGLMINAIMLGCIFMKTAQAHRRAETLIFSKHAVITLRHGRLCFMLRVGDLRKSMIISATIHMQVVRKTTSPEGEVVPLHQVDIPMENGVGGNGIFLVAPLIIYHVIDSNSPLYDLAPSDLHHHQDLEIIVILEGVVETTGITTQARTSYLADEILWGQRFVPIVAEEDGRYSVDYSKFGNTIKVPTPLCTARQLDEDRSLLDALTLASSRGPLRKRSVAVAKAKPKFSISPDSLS
Description: A plasmid vector having cDNA of Kir6.2 channel inserted therein: pcDNA3.1-Kir6.2, was obtained from Dr. Toru Ishizuka (Graduate School of Life Sciences, Tohoku University). The plasmid vector, pcDNA3.1-Kir6.2, was conditioned in accordance with the manual attached to GenElute HP Plasmid Maxiprep Kit (manufactured by Sigma-Aldrich). A culture solution (composition: DMEM culture solution 450 mL containing 50 ml of bovine serum and 100 units of penicillin/streptomycin) of Neuro2A cells (N2A cells, the National Instituted of Biomedical Innovation) cultured in DMEM culture solution (Gibco) was exchanged with Opti-Mem (Gibco)(containing Lipofectamine R2000 (1 μg/1 ml)) containing pcDNA3.1-Kir6.2 (1 μg/μl) conditioned above, and cultured for 5 hours to obtain N2A cells overexpressing Kir6.2 channel. Exchange with the DMEM culture solution was again performed and culture was carried out for two days. Thereafter, memantine (manufactured by Sigma-Aldrich) and the compound of the present invention (n=4 per group) were added in the culture solutions (DMEM, Gibco) so as to obtain a concentration of 10 nM based on the culture solution, and the culture solutions were allowed to stand still for one hour. Thereafter, Kir6.2 channel overexpressing N2A cells were collected and an SDS sample buffer was added to the N2A cells to prepare a suspension. The suspension was subjected to immunoblotting by use of an anti-phosphorylated CaMKII antibody (Fukunaga K et al., J. Biol. Chem. 1992, 267, 22527-22533) as a primary antibody and an anti-rabbit IgG antibody (manufactured by SouthernBiotech) as a secondary antibody (other conditions except the aforementioned antibodies were the same as those employed in ordinary immunoblotting), to investigate activation of CaMKII. As a result, in TP-009, TP-010, TP-011, TP-012, TP-014, TP-015, TP-048, TP-049, TP-050, TP-051, TP-052, TP-053, bands showing a reaction with the antibody against phosphorylated CaMKII were obtained. It was confirmed that activation of CaMKII is enhanced. In FIG. 1, the result of the case (control: c) where a test compound was not added is regarded as 100%. CaMKII activation of the cases containing memantine, TP-009, TP-010, TP-011, TP-012, TP-014, TP-015, TP-048, TP-049, TP-050, TP-051, TP-052, TP-053 (corresponding to M, 9, 10, 11, […], 15, 48, 49, 50, 51, 52 and 53, respectively) were shown in FIG. 1.

Kir6.2 defective mice = experiment: Immunoblotting of hippocampus for CaMKII activation in Kir6.2 defective mice; format: in vivo; settings: chronic treatment
Description: Activation of CaMKII was investigated in the same manner as in FIGS. 4 to 7. In addition, GluA1 (Ser-831), which is known as a molecule activated by activation of CaMKII, was investigated. Hippocampal slices were suspended in an SDS sample buffer to prepare a suspension, which was subjected to immunoblotting. In this way, the intracellular mechanism of cognitive dysfunction in Kir6.2 defective mice was analyzed. The results are shown in FIG. 9 (FIG. 9a: band images by immunoblotting, FIG. 9b: quantification results of signal intensities of bands). In the hippocampus of Kir6.2 defective mice, activation of CaMKII was accelerated. Even in the case of chronic treatment with TP-014, no influence was observed.

activation of CaMKII (phosphorylated CaMKII bands) (Kir6.2 channel): enhanced
SMILES: O=C(N[C@@H](c1ccccc1)[C@H]1[C@H]2C[C@@H]3C[C@](Cl)(C2)C[C@@]1(OC(=O)C(F)(F)F)C3)C(F)(F)F [TP-014, (1S,2R,3S,5S,7S)-5-chloro-2-((R)-phenyl(2,2,2-trifluoroacetamido)methyl)adamantan-1-yl 2,2,2-trifluoroacetate]
fear memory (latency, fear conditioning test) (APP23 mice): improvement effect | immobility time (tail-suspension method and forced swim method) (OBX mice): improved | activation of CaMKII in hippocampus of Kir6.2 defective mice (Kir6.2 defective mice): no influence
